The target of this assay is DNA gyrase (Escherichia coli). Nature of the assay: Inhibitory concentration against Escherichia coli by Escherichia coli DNA gyrase gel-based supercoil assay.

Each structure is given as a SMILES string. pIC50: −log10 of the molar value.

As usually defined, the pIC50 is the negative decadic logarithm of the IC50, by convention in mol/L. A higher pIC50 goes with a low IC50. `CCOC(=O)c1cn(CC)c2cc(N3CCN(C(=O)c4ccc(N5C[C@H](CNC(C)=O)OC5=O)cc4F)CC3)c(F)cc2c1=O` [7-(4-{4-[(S)-5-(Acetylamino-methyl)-2-oxo-oxazolidin-3-yl]-2-fluoro-benzoyl}-piperazin-1-yl)-1-ethyl-6-fluoro-4-oxo-1,4-dihydro-quinoline-3-carboxylic acid ethyl ester] showed a pIC50 of 4.90.

Values taken from BindingDB's records for doi:10.1016/j.bmcl.2003.07.021 (Vicuron Pharmaceuticals, 2003).
